Experimental data reported in PMC12084609, “Structural insights into small-molecule agonist recognition and activation of complement receptor C3aR” (The EMBO Journal, 2025).
Substitutions are numbered along the chain they refer to. pIC50: −log10 of the molar value. “And” between values parts separate entries of the source, which are not always exact repeats. Equal entries are not always repeated. Where two headings read alike, the source gives them in different places.

How the values were obtained:
Assay type in all cases: cell-based
C3aR WT = biological target: T1, C3aR WT (Homo sapiens, UniProt Q16581); assay: GloSensor-based cAMP assay, WT C3aR (HEK293T); conditions: for remaining activity at 0.0001 µM / remaining activity at 10 pM: HEK-293T; for pIC50 / IC50: WT C3aR
T1 construct: expressed in transfected cells; host or cells: HEK293T
T1 sequence (Q16581 1-482): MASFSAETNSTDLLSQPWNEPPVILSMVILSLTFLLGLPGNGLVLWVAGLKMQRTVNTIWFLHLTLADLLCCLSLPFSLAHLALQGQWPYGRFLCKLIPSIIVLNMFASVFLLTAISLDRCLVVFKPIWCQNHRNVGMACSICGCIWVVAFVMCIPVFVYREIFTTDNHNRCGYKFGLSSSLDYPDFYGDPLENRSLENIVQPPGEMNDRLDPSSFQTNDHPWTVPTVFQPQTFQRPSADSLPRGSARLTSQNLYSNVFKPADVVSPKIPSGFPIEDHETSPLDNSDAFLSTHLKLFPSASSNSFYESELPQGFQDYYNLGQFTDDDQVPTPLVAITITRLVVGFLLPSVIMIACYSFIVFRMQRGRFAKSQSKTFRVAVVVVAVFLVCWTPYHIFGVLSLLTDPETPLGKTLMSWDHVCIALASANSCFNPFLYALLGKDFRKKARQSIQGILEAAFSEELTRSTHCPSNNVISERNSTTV
Method: (§1) HEK293T cells were seeded on 6-well plates (NEST) and transfected with pGlosensor™-22F plasmids (Promega) and pcDNA3.1 plasmids encoding C3aR or its mutants an with N-terminal FLAG tag. After 48 h, cells were detached with Accutase solution (Sigma-Aldrich) and washed with PBS, and resuspended in assay buffer (CO2-independent medium with 0.5 mg mL^−1D-luciferin). 100,000–200,000 cells were seeded on 96-well white bottom plates (SPL) and incubated at 37 °C for 45 min followed by 45 min incubation at room temperature. After 90 min of incubation, basal luminescence signals were recorded. In total, 25 μl of test ligand with various concentrations and 1 μM Forskolin (Sigma-Aldrich) were treated to the cells and luminescence signals were measured by Tristar 2 LB 942 multimode reader (Berthold). […] Relative luminescence unit (%) was calculated with the signal of wells treated with vehicle as 0% and the signal of wells treated with 1 μM Forskolin as 100% (DiRaddo et al, [2014]). Nonlinear regression was performed using a three-parameter logistic equation.

C3aR P99^3.29A = biological target: T2, C3aR P99^3.29A (Homo sapiens, UniProt Q16581, P99A); assay: GloSensor-based cAMP assay, C3aR mutant P99A
T2 construct: expressed in transfected cells; host or cells: HEK293T
T2 sequence (Q16581 1-482 P99A): T1 sequence (Q16581 1-482) with P99A
Method: as §1

C3aR Y393^6.51A = biological target: T3, C3aR Y393^6.51A (Homo sapiens, UniProt Q16581, Y393A); assay: GloSensor-based cAMP assay, C3aR mutant Y393A
T3 construct: expressed in transfected cells; host or cells: HEK293T
T3 sequence (Q16581 1-482 Y393A): T1 sequence (Q16581 1-482) with Y393A
Method: as §1

## Cc1cc(C(c2ccc(Cl)cc2)c2ccc(Cl)cc2)sc1C(=O)N[C@@H](CCCNC(=N)N)C(=O)O [JR14a, reference compound]
C3aR WT; read-out: cAMP response (% Forskolin), Log[ligand (M)] -10, individual replicates
  remaining activity at 0.0001 µM: 93.3%
C3aR WT; read-out: cAMP response (% Forskolin), Log[ligand (M)] -11, individual replicates
  remaining activity at 10 pM: 95.3%
C3aR WT; read-out: cAMP response (% Forskolin), WT, Log[JR14a (M)] -10, single replicates
  remaining activity at 0.0001 µM: 93.3%
C3aR WT; read-out: cAMP response (% Forskolin), WT, Log[JR14a (M)] -11, single replicates
  remaining activity at 10 pM: 95.3%
C3aR WT; decrease in cAMP levels, read-out: IC50
  pIC50: 8.40
C3aR WT; individual replicates, read-out: pIC50 (Replicate) (converted)
  IC50: 6.31 nM and 3.98 nM and 5.01 nM
C3aR WT; from BRET and cAMP accumulation assays
  mode of action at C3aR: agonist
C3aR WT; pIC50 (Replicate), individual replicates
  IC50: 2.63 nM and 3.09 nM and 7.08 nM (2×) and 5.75 nM (2×) and 11.5 nM and 8.13 nM and 2.45 nM (2×) and 1.78 nM
C3aR WT; pIC50 Value, Figure EV1B numerical data, curve fit
  pIC50: 8.41
C3aR WT; pIC50 ± SEM (Mean), 1 μM Forskolin, mean of independent experiments
  pIC50: 8.34
C3aR WT; span of cAMP response (% Forskolin) curve, Figure EV1B numerical data
  Span Value: 84.43
C3aR P99^3.29A; Dunnett's multiple comparisons test, WT minus mutant
  Mean Diff. of pIC50, WT vs. P99A: -0.103
C3aR P99^3.29A; IC50, P99^3.29A, dose-response plot
  pIC50: 8.39
C3aR P99^3.29A; P99A, Log[JR14a (M)] -6, single replicates, read-out: cAMP response (% Forskolin)
  remaining activity at 1 µM: 8.38%
C3aR P99^3.29A; P99A, Log[JR14a (M)] -7, single replicates, read-out: cAMP response (% Forskolin)
  remaining activity at 0.1 µM: 9.9%
C3aR P99^3.29A; P99A, Log[JR14a (M)] -9, single replicates, read-out: cAMP response (% Forskolin)
  remaining activity at 0.001 µM: 77.4%
C3aR P99^3.29A; P99A, Log[JR14a (M)] -10, single replicates, read-out: cAMP response (% Forskolin)
  remaining activity at 0.0001 µM: 102%
C3aR P99^3.29A; P99A, Log[JR14a (M)] -11, single replicates, read-out: cAMP response (% Forskolin)
  remaining activity at 10 pM: 104%
C3aR P99^3.29A; P99^3.29A relative to WT C3aR
  ΔpIC50 ± SE of Diff.: 0.10 ± 0.06
C3aR P99^3.29A; P99^3.29 to Ala, relatively mild effect on downstream signaling
  decrease in IC50 values vs WT: < 10 fold
C3aR P99^3.29A; pIC50 (Replicate), P99^3.29A, individual replicates
  pIC50: 8.31 and 8.28 and 8.57
C3aR Y393^6.51A; IC50, Y393^6.51A, dose-response plot
  pIC50: 6.51
C3aR Y393^6.51A; Y393A, Log[JR14a (M)] -6, single replicates, read-out: cAMP response (% Forskolin)
  remaining activity at 1 µM: 21.8%
C3aR Y393^6.51A; Y393A, Log[JR14a (M)] -7, single replicates, read-out: cAMP response (% Forskolin)
  remaining activity at 0.1 µM: 72.2%
C3aR Y393^6.51A; Y393A, Log[JR14a (M)] -8, single replicates, read-out: cAMP response (% Forskolin)
  remaining activity at 0.01 µM: 96.3%
C3aR Y393^6.51A; Y393A, Log[JR14a (M)] -10, single replicates, read-out: cAMP response (% Forskolin)
  remaining activity at 0.0001 µM: 94.3%
C3aR Y393^6.51A; Y393A, Log[JR14a (M)] -11, single replicates, read-out: cAMP response (% Forskolin)
  remaining activity at 10 pM: 93.5%
C3aR Y393^6.51A; pIC50 (Replicate), Y393^6.51A, individual replicates
  pIC50: 6.51 and 6.40 and 6.58
C3aR Y393^6.51A; pIC50 ± SEM (Mean), Y393^6.51A, mean of independent experiments
  pIC50: 6.50
